Source: paper PMC12647017, “Discovery and optimization of a synthetic small protein domain targeting antibodies” (Frontiers in Bioengineering and Biotechnology, 2025)

Key:
human IgG = assay: Microscale Thermophoresis (MST) with IgG-FITC; format: binding; details: E6, IgG-FITC 50 nM, E6 23.5 µM to 0.7 nM, 50 mM MOPS 0.05% (v/v) Tween-20 pH 7, 25 °C, n = 4
Procedure: For MST assays of E6, IgG was conjugated with fluoresceine isothiocyanate (FITC) using standard protocols. The conjugated IgG-FITC was used at a fixed concentration of 50nM and 16 serial dilutions of E6 protein (from 23.5 µM to 0.7 nM) were made in 50 mM MOPS 0.05% (v/v) Tween-20 pH 7.
For MST assays of E6_M2_T2, the target was hIgG-FITC (F9636, Sigma) at a constant concentration of 25 nM. For the E6_M2_T2 ligand, 16 samples were prepared in variable concentrations starting from 695 nM and using a serial dilution of 1:2 up to a minimum concentration of […] using PBS1x-0.05% (v/v) Tween-20 pH7.4.
Samples were transferred to a standard capillary (Monolith NT.115 Capillary, Nanotemper) with the following settings: medium MST-power, excitation power at 20%, with excitation in Nano-Blue, with thermostat at 25 °C. The signal of the samples was read in triplicates using a Monolith NT.115 (Nanotemper) and the signal was processed in the manufacturer software with FitModel: Kd and Hill. The binding parameters (KD and EC50) and were estimated automatically in the MST software.

[1] = Partition of expressed E6 between soluble and insoluble fraction; format: physicochemical; details: E. coli Rosetta (DE3), supplementation with L-arginine / L-glutamic acid (tests E and H), Tris-Tricine gel
Procedure: The gene corresponding to the chosen E6 sequence was cloned according to the detail information in Supplementary Material. The bacterial clones with the insert DNA were selected for protein expression in E. coli Rosetta (DE3) cells. For this purpose, the DNA was purified with NZYMiniprep kit and was used for transformation onto E. coli Rosetta competent cells following the protocol of the manufacturer. For the protein expression, a pre-inoculum was prepared adding 5 µL of the transformed colonies glycerol stock in 5 mL LB medium containing ampicillin (vector resistance) and […] (strain resistance). After 6 h of incubation, 1 mL of the culture was added to 100 mL of LB medium and was incubated overnight at 37 °C at 225 rpm. On the following day, 10 mL of the culture was inoculated onto 1 L of LB medium and was incubated at 37 °C at 225 rpm. […]
The WWp5_4 scaffold is composed by 42 amino acid residues with a molecular weight of approximately 5 kDa. […] The protein expression profile was evaluated under normal expression conditions (without supplementation of amino acids, test A) and a strong band at ∼ 5 kDa is visible (Supplementary Figure S3A). […] To assess whether test E or test H has higher content of soluble E6, bacterial cells were lysed and the soluble supernatant analysed. […]

With “SMGLPPGWDEYKT RRFKL GKTYYYNH HILS KTSTWTDPRMSS [Clone E6]” the EC50 (human IgG) was 0.146 µM, the Kd (human IgG; read-out: dissociation constant, KD) was 0.133 ± 0.048 µM and the “soluble fraction of expressed protein” value [1] was 16%.
